Experimental data: US8404738B2 (Hoffmann-La Roche Inc., priority 2011, dated 2013)

How the values were obtained:
recombinant human HDAC8 = molecular target: T1, recombinant human HDAC8 (Homo sapiens, UniProt Q9BY41); test: HDAC8 inhibition: recombinant HDAC8 fluorometric assay; type: biochemical; details: recombinant human HDAC8, substrate Ac-Arg-His-Lys-Lys(ε-acetyl)-AMC; read-out: HDAC8 IC50
T1 construct: made in house; host or cells: insect cells
T1 sequence (Q9BY41 1-377): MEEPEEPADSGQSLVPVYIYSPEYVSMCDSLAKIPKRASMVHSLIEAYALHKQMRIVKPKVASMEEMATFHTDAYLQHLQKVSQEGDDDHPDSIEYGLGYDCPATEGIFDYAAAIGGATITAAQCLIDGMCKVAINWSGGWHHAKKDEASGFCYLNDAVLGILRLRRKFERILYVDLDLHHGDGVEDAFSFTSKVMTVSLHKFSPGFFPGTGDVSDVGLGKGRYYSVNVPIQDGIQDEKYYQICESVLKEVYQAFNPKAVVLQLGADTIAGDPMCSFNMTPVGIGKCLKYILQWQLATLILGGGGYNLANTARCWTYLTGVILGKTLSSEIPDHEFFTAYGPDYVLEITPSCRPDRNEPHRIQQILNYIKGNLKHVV
Outline: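 Recombinant human HDAC8 from insect cells was preincubated with compound for 15 min at rt, then given Ac-Arg-His-Lys-Lys(ε-acetyl)-AMC substrate for 30 min at rt. IC50 came from normalized percent inhibition with curve fitting.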

[1] = system: p21 promoter-luciferase construct; test: p21 reporter gene induction (HeLa cells, p21 promoter-luciferase construct); details: for p21 RP3: relative gene level of p21 compared to MS275 at 3 μM; for p21 RP10: relative level of p21 compared to MS275 at 10 μM; for p21 RP30: relative level of p21 compared to MS275 at 30 μM;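 as to all read-outs here: transfected HeLa cells exposed to compound for 15 h, luciferase luminescence read from lysates, p21 promoter lacks p53 site, proxy for cellular HDAC1/2/3 inhibition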
Protocol: As a surrogate for in-cell HDAC1/2/3 inhibition, p21 induction was used as a counterscreen to evaluate the selectivity of the compounds in the present invention toward HDAC6 or HDAC8.
The novel compounds of the present invention were tested for their ability to induce p21 gene expression using a reporter gene assay involving HeLa cells transfected with a p21 promoter-luciferase construct. The p21 promoter contained the Sp1/Sp3 binding site for HDAC but not the upstream p53 binding site. Briefly, the day before transfection, HeLa cells were seeded at 11,000 cells/well in a 96-well culture plate and incubated at 37° C. in 5% CO2 overnight. A transfection media was prepared prior to transfection according to the following procedure: (1) 5 μl serum-free DMEM, 0.15 μl Fugene 6 reagent, 40 ng p21-luc, 10 ng GFP were mixed gently and incubated at rt for 30 minutes; (2), then 98 μl DMEM (with 10% FBS, 1% penicillin and streptomycin) was added to the DNA: Fugene 6 reagent complex and mixed gently. For transfection, the medium was removed and replaced with 100 μl/well transfection media which was prepared according to the procedure above. After incubating the cells for 24 hours at 37° C. in 5% CO2, fresh media and test compounds were added to the wells and the cells further incubated for 15 hours at 37° C. in 5% CO2. Cells were lysed by adding 80 μl/well of a cell culture lysis reagent (Promega). 50 μl of each lysate was taken for GFP detection using an excitation wavelength of 486 nm and detection at 527 nm. 100 μl luciferase assay reagent (Promega) was then added to every 20 μl cell lysate for luminometer detection.

HDAC6 = molecular target: T2, HDAC6 (Homo sapiens, UniProt Q9UBN7); test: Tubulin acetylation cytoblot assay (A549 cells); type: cell-based; details: 17-18 h incubation, tubulin acetylation as marker of HDAC6 inhibition, read-out: Tub-Ac EC50
T2 construct: endogenous in cells; host or cells: A549 cells
T2 sequence (Q9UBN7 1-1215): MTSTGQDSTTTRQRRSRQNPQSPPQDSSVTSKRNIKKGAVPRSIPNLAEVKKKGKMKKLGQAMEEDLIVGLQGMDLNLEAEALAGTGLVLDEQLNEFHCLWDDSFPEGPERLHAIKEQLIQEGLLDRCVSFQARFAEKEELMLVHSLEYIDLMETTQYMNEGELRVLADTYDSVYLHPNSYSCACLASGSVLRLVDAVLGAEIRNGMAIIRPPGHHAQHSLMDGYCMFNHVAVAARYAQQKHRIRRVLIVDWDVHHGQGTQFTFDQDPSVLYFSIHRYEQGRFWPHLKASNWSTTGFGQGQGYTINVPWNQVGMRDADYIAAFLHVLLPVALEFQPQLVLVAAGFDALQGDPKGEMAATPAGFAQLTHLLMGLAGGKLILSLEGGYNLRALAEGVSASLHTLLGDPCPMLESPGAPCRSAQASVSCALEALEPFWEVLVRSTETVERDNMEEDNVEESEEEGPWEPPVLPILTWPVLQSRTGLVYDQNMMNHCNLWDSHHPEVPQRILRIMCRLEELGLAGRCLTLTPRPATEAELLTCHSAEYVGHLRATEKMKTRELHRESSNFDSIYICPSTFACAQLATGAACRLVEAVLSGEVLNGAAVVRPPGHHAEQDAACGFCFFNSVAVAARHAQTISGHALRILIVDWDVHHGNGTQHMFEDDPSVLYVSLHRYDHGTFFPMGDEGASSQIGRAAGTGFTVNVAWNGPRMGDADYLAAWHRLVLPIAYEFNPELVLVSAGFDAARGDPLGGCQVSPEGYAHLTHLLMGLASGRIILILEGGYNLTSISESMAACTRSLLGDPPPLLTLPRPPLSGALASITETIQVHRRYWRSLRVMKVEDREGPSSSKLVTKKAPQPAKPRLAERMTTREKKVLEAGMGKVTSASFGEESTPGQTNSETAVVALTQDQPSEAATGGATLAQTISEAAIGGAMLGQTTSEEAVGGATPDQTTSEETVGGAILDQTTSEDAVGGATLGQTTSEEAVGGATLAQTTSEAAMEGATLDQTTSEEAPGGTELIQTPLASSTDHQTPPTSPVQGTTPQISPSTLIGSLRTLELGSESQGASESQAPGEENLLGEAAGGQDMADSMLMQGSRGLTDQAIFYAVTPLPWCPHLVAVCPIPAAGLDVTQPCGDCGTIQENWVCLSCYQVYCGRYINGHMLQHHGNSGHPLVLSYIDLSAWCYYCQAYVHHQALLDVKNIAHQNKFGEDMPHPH
Outline: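 Cells were exposed to compound for 17-18 h, then fixed with formaldehyde and permeabilized with cold MeOH. They were probed for 4 h at 4° C with anti-acetylated tubulin plus HRP anti-mouse IgG (each 1:750), and read by ECL luminescence. EC50 values came from curves normalized to top and bottom controls.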

Row | Compound | IC50 (recombinant human HDAC8) | p21 RP3 [1] | p21 RP10 [1] | p21 RP30 [1] | EC50 (HDAC6)
1 | CC1(Nc2ccc(C(=O)NO)cc2)CCN(C(C)(C)c2ccccc2)C1=O (stereo not shown) [Example 64, N-Hydroxy-4-[3-methyl-1-(1-methyl-1-phenyl-ethyl)-2-oxo-pyrrolidin-3-ylamino]-benzamide] | 320 nM | 0.30 | 0.04 | 0.02 | 10200 nM
2 | O=C(NO)c1ccc(NC2CCN(c3ccccc3)C2=O)cc1F (stereo not shown) [Example 66, 2-Fluoro-N-hydroxy-4-(2-oxo-1-phenyl-pyrrolidin-3-ylamino)-benzamide] | 1250 nM | 0.01 | 0.01 | 0.00 | 2420 nM
3 | O=C(NO)c1ccc(NC2CCN(c3cccc(Cl)c3)C2=O)cc1F (stereo not shown) [Example 67, 4-[1-(3-Chloro-phenyl)-2-oxo-pyrrolidin-3-ylamino]-2-fluoro-N-hydroxy-benzamide] | 2120 nM | 0.40 | 0.17 | 0.02 | 6230 nM
4 | O=C(NO)c1ccc(NC2CCN(c3ccccc3)C2=O)c(Cl)c1 (stereo not shown) [Example 69, 3-Chloro-N-hydroxy-4-(2-oxo-1-phenyl-pyrrolidin-3-ylamino)-benzamide] | 850 nM | 0.36 | 0.15 | −0.03 | 8230 nM
5 | O=C(NO)c1ccc(NC2CC(=O)N(c3cccc(Cl)c3)C2)cc1 (stereo not shown) [Example 72, 4-[1-(3-Chloro-phenyl)-5-oxo-pyrrolidin-3-ylamino]-N-hydroxy-benzamide] | 1480 nM | 0.16 | 0.14 | 0.09 | 2340 nM
6 | COc1cccc(N2CC(Nc3ccc(C(=O)NO)cc3)CC2=O)c1 (stereo not shown) [Example 74, N-Hydroxy-4-[1-(3-methoxy-phenyl)-5-oxo-pyrrolidin-3-ylamino]-benzamide] | 1010 nM | −0.07 | 0.07 | 0.12 | 1840 nM
7 | O=C(NO)c1ccc(NC2CC(=O)N(Cc3ccccc3)C2)cc1 (stereo not shown) [Example 75, 4-(1-Benzyl-5-oxo-pyrrolidin-3-ylamino)-N-hydroxy-benzamide] | 860 nM | 0.19 | 0.07 | 0.11 | 4560 nM
8 | CC1C(=O)N(c2ccc(Cl)cc2)CC1Nc1ccc(C(=O)NO)cc1 (stereo not shown) [Example 78, 4-[1-(4-Chloro-phenyl)-4-methyl-5-oxo-pyrrolidin-3-ylamino]-N-hydroxy-benzamide] | 1830 nM | 0.64 | 0.15 | 0.04 | 1810 nM
9 | O=C(NO)c1ccc(NC2CCN(c3ccccc3)C2)cc1 (stereo not shown) [Example 79, N-Hydroxy-4-(1-phenyl-pyrrolidin-3-ylamino)-benzamide] | 1700 nM | 0.21 | 0.09 | 0.04 | 4540 nM
10 | O=C(NO)c1ccc(NC2CCN(c3ccc(Cl)cc3)C2)cc1 (stereo not shown) [Example 80, 4-[1-(4-Chloro-phenyl)-pyrrolidin-3-ylamino]-N-hydroxy-benzamide] | 4650 nM | 0.37 | 0.08 | −0.05 | 4260 nM
11 | O=C(NO)c1ccc(NC2CCN(c3c(Cl)cccc3Cl)C2)cc1 (stereo not shown) [Example 81, 4-[1-(2,6-Dichloro-phenyl)-pyrrolidin-3-ylamino]-N-hydroxy-benzamide] | 1920 nM | 0.08 | −0.04 | −0.01 | 720 nM
12 | O=C(NO)c1ccc(NC2CCN(c3ccc(Cl)cc3Cl)C2)cc1 (stereo not shown) [Example 82, 4-[1-(2,4-Dichloro-phenyl)-pyrrolidin-3-ylamino]-N-hydroxy-benzamide] | 2360 nM | 0.14 | −0.08 | −0.06 | 1430 nM
13 | O=C(NO)c1ccc(NC2CCN(c3ncccn3)C2)cc1 (stereo not shown) [Example 83, N-Hydroxy-4-(1-pyrimidin-2-yl-pyrrolidin-3-ylamino)-benzamide] | 1210 nM | 0.37 | 0.11 | 0.08 | 1110 nM
14 | O=C(NO)c1ccc(NC2CCN(S(=O)(=O)c3ccc(F)cc3)C2)cc1 (stereo not shown) [Example 85, 4-[1-(4-Fluoro-benzenesulfonyl)-pyrrolidin-3-ylamino]-N-hydroxy-benzamide] | 1120 nM | 0.35 | 0.10 | 0.05 | 7310 nM
15 | CC1(Nc2ccc(C(=O)NO)cc2)C(=O)N(Cc2ccccc2)c2ccccc21 (stereo not shown) [Example 91, 4-(1-Benzyl-3-methyl-2-oxo-2,3-dihydro-1H-indol-3-ylamino)-N-hydroxy-benzamide] | 1280 nM | 2.06 | 2.66 | 0.84 | 5230 nM
16 | CC1(Nc2ccc(C(=O)NO)cc2)C(=O)N(Cc2ccccc2Cl)c2ccccc21 (stereo not shown) [Example 92] | 1740 nM | 0.56 | 0.20 | 0.40 | 330 nM
17 | CC1(Nc2ccc(C(=O)NO)cc2)C(=O)N(Cc2cccc(Cl)c2)c2ccccc21 (stereo not shown) [Example 93, 4-[1-(3-chloro-benzyl)-3-methyl-2-oxo-2,3-dihydro-1H-indol-3-ylamino)-N-hydroxy-benzamide] | 1920 nM | 0.58 | 0.12 | 0.05 | 410 nM
18 | CC1(Nc2ccc(C(=O)NO)cc2)C(=O)N(c2ccccc2)c2ccccc21 (stereo not shown) [Example 95, N-hydroxy-4-(3-methyl-2-oxo-1-phenyl-2,3-dihydro-1H-indol-3-ylamino)-benzamide] | 850 nM | 0.58 | 0.39 | 0.60 | 80 nM
19 | CC1(Nc2ccc(C(=O)NO)cc2)C(=O)N(c2cccc(Cl)c2)c2ccccc21 (stereo not shown) [Example 96, 4-[1-(3-chloro-phenyl)-3-methyl-2-oxo-2,3-dihydro-1H-indol-3-ylamino)-N-hydroxy-benzamide] | 1400 nM | 0.86 | 1.34 | 0.02 | 320 nM
20 | CC1(Nc2ccc(C(=O)NO)cc2)C(=O)N(c2ccc(Cl)cc2)c2ccc(F)cc21 (stereo not shown) [Example 97, 4-[1-(4-Chloro-phenyl)-5-fluoro-3-methyl-2-oxo-2,3-dihydro-1H-indol-3-ylamino]-N-hydroxy-benzamide] | 2080 nM | 2.39 | 3.56 | 0.07 | 200 nM
